Patent US20240190890A1, “MK2 INHIBITORS AND USES THEREOF” (Bristol-Myers Squibb Company, priority 2022, published 2024)

Target: p38a activated, mitogen-activated protein kinase-activated protein kinase 2 (MAPKAP-K2 or MK2) enzyme (Homo sapiens (Human), UniProt P49137)
Assay: MK2 Omnia continuous-read kinase assay for compound potency
Format: biochemical
Conditions: [MK-2]=0.4 nM, [ATP]=10 μM, [ST3-Sox]=10 μM; room temperature
In short: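 p38a-activated MK2 (0.4 nM) with 10 μM ATP (apparent Km) and 10 μM S/T3-Sox peptide in Tris pH 7.5 buffer with MgCl2, EGTA and DTT. Fluorescence (ex360/em485) read continuously for 120 min at room temperature. IC50 from initial linear slopes; apparent kinact/KI from kobs of exponential progress-curve fits.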

Sequence of p38a activated, mitogen-activated protein kinase-activated protein kinase 2 (MAPKAP-K2 or MK2) enzyme (P49137 whole entry): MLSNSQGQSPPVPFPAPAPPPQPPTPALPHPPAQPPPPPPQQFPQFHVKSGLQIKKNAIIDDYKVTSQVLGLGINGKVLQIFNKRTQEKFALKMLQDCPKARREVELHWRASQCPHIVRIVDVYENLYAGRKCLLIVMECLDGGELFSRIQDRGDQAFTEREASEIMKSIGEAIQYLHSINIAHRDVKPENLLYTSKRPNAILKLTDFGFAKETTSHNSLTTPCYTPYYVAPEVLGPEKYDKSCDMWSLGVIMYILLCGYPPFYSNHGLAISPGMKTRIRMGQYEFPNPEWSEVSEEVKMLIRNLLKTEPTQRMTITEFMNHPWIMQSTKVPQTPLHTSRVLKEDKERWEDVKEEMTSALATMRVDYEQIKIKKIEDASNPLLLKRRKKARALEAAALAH

Row | Compound | IC50
1 | C=Cc1nc(C)c(C)n1-c1ccc2c(ccc3sc4c(c32)NC[C@@H](C)NC4=O)n1 [Example I-231, (R)-3-(4,5-dimethyl-2-vinyl-1H-imidazol-1-yl)-10-methyl-9,10,11,12-tetrahydro-8H-[1,4]diazepino[5′,6′:4,5]thieno[3,2-f]quinolin-8-one] | 28 nM
2 | C[C@@H]1CNc2c(sc3ccc4nc(-c5nc(Cl)ncc5COC5COC5)ccc4c23)C(=O)N1 [Example I-20, (R)-3-(2-chloro-5-((oxetan-3-yloxy)methyl)pyrimidin-4-yl)-10-methyl-9,10,11,12-tetrahydro-8H-[1,4]diazepino[5′,6′:4,5]thieno[3,2-f]quinolin-8-one] | 224 nM
3 | C#Cc1cc(-c2ccc3c(ccc4sc5c(c43)NC[C@@H](C)NC5=O)n2)c(OC)nn1 [Example I-91, (R)-3-(6-ethynyl-3-methoxypyridazin-4-yl)-10-methyl-9,10,11,12-tetrahydro-8H-[1,4]diazepino[5′,6′:4,5]thieno[3,2-f]quinolin-8-one] | 26 nM
4 | COc1nnc(/C=C/C(F)(F)F)cc1-c1ccc2c(ccc3sc4c(c32)NC[C@@H](C)NC4=O)n1 [Example I-200, (R,E)-3-(3-methoxy-6-(3,3,3-trifluoroprop-1-en-1-yl)pyridazin-4-yl)-10-methyl-9,10,11,12-tetrahydro-8H-[1,4]diazepino[5′,6′:4,5]thieno[3,2-f]quinolin-8-one] | 1000 nM
5 | C=Cc1ccn(-c2ccc3c(ccc4sc5c(c43)NC[C@@H](C)NC5=O)n2)n1 [Example I-147, (R)-10-methyl-3-(3-vinyl-1H-pyrazol-1-yl)-9,10,11,12-tetrahydro-8H-[1,4]diazepino[5′,6′:4,5]thieno[3,2-f]quinolin-8-one] | 104 nM
6 | C=Cc1nccc(-c2ccc3c(ccc4sc5c(c43)NC[C@@H](C)NC5=O)n2)c1F [Example I-217, (R)-3-(3-fluoro-2-vinylpyridin-4-yl)-10-methyl-9,10,11,12-tetrahydro-8H-[1,4]diazepino[5′,6′:4,5]thieno[3,2-f]quinolin-8-one] | 78 nM
7 | C=Cc1cc(-c2ccc3c(ccc4sc5c(c43)NC[C@@H](C)NC5=O)n2)cc(N2CCC(OC)CC2)n1 [Example I-158, (R)-3-(2-(4-methoxypiperidin-1-yl)-6-vinylpyridin-4-yl)-10-methyl-9,10,11,12-tetrahydro-8H-[1,4]diazepino[5′,6′:4,5]thieno[3,2-f]quinolin-8-one] | 38 nM
8 | C#Cc1cc(-c2ccc3c(ccc4sc5c(c43)NC[C@@H](C)NC5=O)n2)c(C)cn1 [Example I-111, (R)-3-(2-ethynyl-5-methylpyridin-4-yl)-10-methyl-9,10,11,12-tetrahydro-8H-[1,4]diazepino[5′,6′:4,5]thieno[3,2-f]quinolin-8-one] | 104 nM
9 | C[C@@H]1CNc2c(sc3ccc4nc(-c5cc(Cl)nc(Cl)n5)ccc4c23)C(=O)N1 [Example I-58, (R)-3-(2,6-dichloropyrimidin-4-yl)-10-methyl-9,10,11,12-tetrahydro-8H-[1,4]diazepino[5′,6′:4,5]thieno[3,2-f]quinolin-8-one] | 16 nM
10 | C=Cc1cc(-c2ccc3c(ccc4sc5c(c43)NC[C@@H](C)NC5=O)n2)c(CN2CCC(C(F)(F)F)CC2)cn1 [Example I-212, (R)-10-methyl-3-(5-((4-(trifluoromethyl)piperidin-1-yl)methyl)-2-vinylpyridin-4-yl)-9,10,11,12-tetrahydro-8H-[1,4]diazepino[5′,6′:4,5]thieno[3,2-f]quinolin-8-one] | 92 nM
11 | C=Cc1ncc(COC2(C)COC2)c(-c2ccc3c(ccc4sc5c(c43)NC[C@@H](C)NC5=O)n2)n1 [Example I-29, (R)-10-methyl-3-(5-(((3-methyloxetan-3-yl)oxy)methyl)-2-vinylpyrimidin-4-yl)-9,10,11,12-tetrahydro-8H-[1,4]diazepino[5′,6′:4,5]thieno[3,2-f]quinolin-8-one] | 20 nM

Other lines, results leading:

Row | IC50 | Compound
12 | 13 nM | C=Cc1ncc(CO)c(-c2ccc3c(ccc4sc5c(c43)NC[C@@H](C)NC5=O)n2)n1 [Example I-77, (R)-3-(5-(hydroxymethyl)-2-vinylpyrimidin-4-yl)-10-methyl-9,10,11,12-tetrahydro-8H-[1,4]diazepino[5′,6′:4,5]thieno[3,2-f]quinolin-8-one]
13 | 912 nM | C[C@@H]1CNc2c(sc3ccc4nc(-c5cc(Cl)nnc5OCCN5CCOCC5)ccc4c23)C(=O)N1 [Example I-132, (R)-3-(6-chloro-3-(2-morpholinoethoxy)pyridazin-4-yl)-10-methyl-9,10,11,12-tetrahydro-8H-[1,4]diazepino[5′,6′:4,5]thieno[3,2-f]quinolin-8-one]
14 | 429 nM | C=C(C)c1ncc(F)c(-c2ccc3c(ccc4sc5c(c43)NC[C@@H](C)NC5=O)n2)n1 [Example I-47, (R)-3-(5-fluoro-2-(prop-1-en-2-yl)pyrimidin-4-yl)-10-methyl-9,10,11,12-tetrahydro-8H-[1,4]diazepino[5′,6′:4,5]thieno[3,2-f]quinolin-8-one]
15 | 9 nM | C=Cc1nncn1-c1ccc2c(ccc3sc4c(c32)NC[C@@H](C)NC4=O)n1 [Example I-203, (R)-10-methyl-3-(3-vinyl-4H-1,2,4-triazol-4-yl)-9,10,11,12-tetrahydro-8H-[1,4]diazepino[5′,6′:4,5]thieno[3,2-f]quinolin-8-one]
16 | 2 nM | C=Cc1cc(-c2ccc3c(ccc4sc5c(c43)NC[C@@H](C)NC5=O)n2)c(C#N)cn1 [Example I-161, (R)-4-(10-methyl-8-oxo-9,10,11,12-tetrahydro-8H-[1,4]diazepino[5′,6′:4,5]thieno[3,2-f]quinolin-3-yl)-6-vinylnicotinonitrile]
17 | 3 nM | C[C@@H]1CNc2c(sc3ccc4nc(-c5cc(Cl)ncc5C#N)ccc4c23)C(=O)N1 [Example I-160, (R)-6-chloro-4-(10-methyl-8-oxo-9,10,11,12-tetrahydro-8H-[1,4]diazepino[5′,6′:4,5]thieno[3,2-f]quinolin-3-yl)nicotinonitrile]
18 | 68 nM | C[C@@H]1CNc2c(sc3ccc4nc(-c5ccnc(Cl)c5)ccc4c23)C(=O)N1 [Example I-272, (R)-3-(2-chloropyridin-4-yl)-10-methyl-9,10,11,12-tetrahydro-8H-[1,4]diazepino[5′,6′:4,5]thieno[3,2-f]quinolin-8-one]
19 | 58 nM | C#Cc1nc(-c2ccc3c(ccc4sc5c(c43)NC[C@@H](C)NC5=O)n2)cc(N2CCN(C)CC2)n1 [Example I-60, (R)-3-(2-ethynyl-6-(4-methylpiperazin-1-yl)pyrimidin-4-yl)-10-methyl-9,10,11,12-tetrahydro-8H-[1,4]diazepino[5′,6′:4,5]thieno[3,2-f]quinolin-8-one]
20 | 60 nM | C[C@@H]1CNc2c(sc3ccc4nc(-c5cc(Cl)nc(CO)c5)ccc4c23)C(=O)N1 [Example I-97, (R)-3-(2-chloro-6-(hydroxymethyl)pyridin-4-yl)-10-methyl-9,10,11,12-tetrahydro-8H-[1,4]diazepino[5′,6′:4,5]thieno[3,2-f]quinolin-8-one]
21 | 9 nM | C=Cc1cc(-c2ccc3c(ccc4sc5c(c43)NC[C@@H](C)NC5=O)n2)c(C)nn1 [Example I-136, (R)-10-methyl-3-(3-methyl-6-vinylpyridazin-4-yl)-9,10,11,12-tetrahydro-8H-[1,4]diazepino[5′,6′:4,5]thieno[3,2-f]quinolin-8-one]
22 | 97 nM | C[C@@H]1CNc2c(sc3ccc4nc(-c5nc(Cl)ncc5C#N)ccc4c23)C(=O)N1 [Example I-9, (R)-2-chloro-4-(10-methyl-8-oxo-9,10,11,12-tetrahydro-8H-[1,4]diazepino[5′,6′:4,5]thieno[3,2-f]quinolin-3-yl)pyrimidine-5-carbonitrile]
23 | 1 nM | C=Cc1nccn1-c1ccc2c(ccc3sc4c(c32)NC[C@@H](CF)NC4=O)n1 [Example I-255, (S)-10-(fluoromethyl)-3-(2-vinyl-1H-imidazol-1-yl)-9,10,11,12-tetrahydro-8H-[1,4]diazepino[5′,6′:4,5]thieno[3,2-f]quinolin-8-one]
24 | 4 nM | C=Cc1cc(-c2ccc3c(ccc4sc5c(c43)NC[C@@H](C)NC5=O)n2)nc(N2CCN(C)CC2)n1 [Example I-19, (R)-10-methyl-3-(2-(4-methylpiperazin-1-yl)-6-vinylpyrimidin-4-yl)-9,10,11,12-tetrahydro-8H-[1,4]diazepino[5′,6′:4,5]thieno[3,2-f]quinolin-8-one]
25 | 98 nM | C#Cc1cc(-c2ccc3c(ccc4sc5c(c43)NC[C@@H](C)NC5=O)n2)cc(N2CCN(CC)CC2)n1 [Example I-174, (R)-3-(2-(4-ethylpiperazin-1-yl)-6-ethynylpyridin-4-yl)-10-methyl-9,10,11,12-tetrahydro-8H-[1,4]diazepino[5′,6′:4,5]thieno[3,2-f]quinolin-8-one]
26 | 21 nM | C=Cc1cc(-c2ccc3c(ccc4sc5c(c43)NCC(C)NC5=O)n2)cc(N2CCC3(CCC(=O)O3)CC2)n1 (racemic) [Example I-215, rac-(R)-8-(4-(10-methyl-8-oxo-9,10,11,12-tetrahydro-8H-[1,4]diazepino[5′,6′:4,5]thieno[3,2-f]quinolin-3-yl)-6-vinylpyridin-2-yl)-1-oxa-8-azaspiro[4.5]decan-2-one]
27 | 8 nM | C#Cc1cc(-c2ccc3c(ccc4sc5c(c43)NC[C@@H](C)NC5=O)n2)nc(COCC)n1 [Example I-39, (R)-3-(2-(ethoxymethyl)-6-ethynylpyrimidin-4-yl)-10-methyl-9,10,11,12-tetrahydro-8H-[1,4]diazepino[5′,6′:4,5]thieno[3,2-f]quinolin-8-one]
28 | 460 nM | C=C(F)c1cccc(-c2ccc3c(ccc4sc5c(c43)NC[C@@H](C)NC5=O)n2)n1 [Example I-90, (R)-3-(6-(1-fluorovinyl)pyridin-2-yl)-10-methyl-9,10,11,12-tetrahydro-8H-[1,4]diazepino[5′,6′:4,5]thieno[3,2-f]quinolin-8-one]
